According to patent US9499550B2 (BRISTOL-MYERS SQUIBB COMPANY, priority 2012, dated 2016):
Like-named read-outs stand apart in the source and are kept apart here.

Experiments:
[1] = tested on: HCV genotype 1b (Con1) replicon in HUH-7 cells; test: HCV replicon luciferase reporter assay, genotype 1b; type: cell-based; settings: Hepatitis C virus, Huh-7, 72 h, 3 days incubation
In short: (§1)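 Replicon inhibition for both genotypes was measured as Renilla luciferase signal (EnduRen, 7.5 μM final, 2 h) after 3-day, 37° C exposure of replicon-bearing HUH-7 cells in 4% FCS DMEM, 0.5% DMSO. The 1b construct carries S1179I; the 1a H77 construct carries P1496L and S2204I. Twenty-point, 3-fold dilutions were fitted four-parametrically for EC50, and CC50 was taken from multiplexed Cell Titer-Blue.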

[2] = tested on: HCV genotype 1a (H77 strain) replicon in HUH-7 cells; test: HCV replicon luciferase reporter assay, genotype 1a; type: cell-based; settings: Hepatitis C virus, Huh-7, 72 h, 3 days incubation
In short: as §1

[3] = HCV genotype 1b replicon luciferase, read-out: LE_1b (EC50, range)
[4] = HCV genotype 1a replicon luciferase, read-out: LE_1a (EC50, range)
[5] = HCV genotype 1b replicon luciferase assay, range class, read-out: LE_1b (EC50, range)
[6] = HCV genotype 1a replicon luciferase assay, range class, read-out: LE_1a (EC50, range)
[7] = GETYPE1B, HCV genotype 1b replicon luciferase, read-out: LE_1b (EC50, range)
[8] = GETYPE1A, HCV genotype 1a replicon luciferase, read-out: LE_1a (EC50, range)

Structure (SMILES)	EC50 [1, 3] [nM]	EC50 [2, 4] [nM]	further results
[2H]C([2H])([2H])C(OC(=O)N[C@@H]1C(=O)N2C[C@H](Oc3nccc4cc(OC)c(F)cc34)C[C@H]2C(=O)N[C@]2(C(=O)NS(=O)(=O)C3(C)CC3)C[C@H]2/C=C\CC[C@@H](C)C[C@H]1CC)(C([2H])([2H])[2H])C(F)(F)F [Compound 5429]	1.01 to 5	1.01 to 5	
C[C@H]1CC/C=C\[C@@H]2C[C@@]2(C(=O)NS(=O)(=O)C2CC2)NC(=O)[C@@H]2C[C@@H](Oc3nccc4c5c(ccc34)N(C)CCO5)CN2C(=O)[C@@H](NC(=O)NC(C)(C)C)[C@H](C)C1 [Compound 5283, (2R,6S,7R,9S,13aS,14aR,16aS,Z)-6-(3-(tert-butyl)ureido)-N-(cyclopropylsulfonyl)-7,9-dimethyl-2-((4-methyl-3,4-dihydro-2H-[1,4]oxazino[2,3-f]isoquinolin-7-yl)oxy)-5,16-dioxo-1,2,3,5,6,7,8,9,10,11,13a,14,14a,15,16,16a-hexadecahydrocyclopropa[e]pyrrolo[1,2-a][1,4]diazacyclopentadecine-14a-carboxamide]	< 5.46	< 5.46	EC50 ([1]; HCV genotype 1b replicon luciferase, read-out: LE_1b (EC50)): 3.12 nM; EC50 ([2]; HCV genotype 1a replicon luciferase, read-out: LE_1a (EC50)): 4.82 nM
COCCOc1cnc(O[C@@H]2C[C@H]3C(=O)N[C@]4(C(=O)NS(=O)(=O)C5CC5)C[C@H]4/C=C\CC[C@@H](C)C[C@@H](C)[C@H](NC(=O)OC4C[C@@H]5C[C@H]5C4)C(=O)N3C2)c2ccccc12 [Compound 1040, (1S,5S)-bicyclo[3.1.0]hexan-3-yl((2R,6S,7R,9R,13aS,14aR,16aS,Z)-14a-((cyclopropylsulfonyl)carbamoyl)-2-((4-(2-methoxyethoxyl)isoquinolin-1-yl)oxy)-7,9-dimethyl-5,16-dioxo-1,2,3,5,6,7,8,9,10,11,13a,14,14a,15,16,16a-hexadecahydrocyclopropa[e]pyrrolo[1,2-a][1,4]diazacyclopentadecin-6-yl)carbamate]			EC50 [1, 5]: < 5.46 nM; EC50 [2, 6]: < 5.46 nM
C[C@@H]1CC/C=C\[C@@H]2C[C@@]2(C(=O)NS(=O)(=O)C2CC2)NC(=O)[C@@H]2C[C@@H](Oc3nccc4c5c(ccc34)N(C)CCO5)CN2C(=O)[C@@H](NC(=O)OC(C)(C)C(C)(F)F)[C@H](C)C1 [Compound 5282, 3,3-difluoro-2-methylbutan-2-yl((2R,6S,7R,9R,13aS,14aR,16aS,Z)-14a-((cyclopropylsulfonyl)carbamoyl)-7,9-dimethyl-2-((4-methyl-3,4-dihydro-2H-[1,4]oxazino[2,3-f]isoquinolin-7-yl)oxy)-5,16-dioxo-1,2,3,5,6,7,8,9,10,11,13a,14,14a,15,16,16a-hexadecahydrocyclopropa[e]pyrrolo[1,2-a][1,4]diazacyclopentadecin-6-yl)carbamate]	< 5.46	< 5.46	
CCCOc1cnc(O[C@@H]2C[C@H]3C(=O)N[C@]4(C(=O)NS(=O)(=O)C5CC5)C[C@H]4/C=C\CC[C@H](C)C[C@@H](C)[C@H](NC(=O)O[C@@H]4C[C@@H]5C[C@@H]5C4)C(=O)N3C2)c2ccccc12 [Compound 5092, (1R,3r,5S)-bicyclo[3.1.0]hexan-3-yl((2R,6S,7R,9S,13aS,14aR,16aS,Z)-14a-((cyclopropylsulfonyl)carbamoyl)-7,9-dimethyl-5,16-dioxo-2-((4-propoxyisoquinolin-1-yl)oxy)-1,2,3,5,6,7,8,9,10,11,13a,14,14a,15,16,16a-hexadecahydrocyclopropa[e]pyrrolo[1,2-a][1,4]diazacyclopentadecin-6-yl)carbamate]	4.82 to 103	> 87.4	
C[C@@H]1CC/C=C\[C@@H]2C[C@@]2(C(=O)NS(=O)(=O)C2(CF)CC2)NC(=O)[C@@H]2C[C@@H](Oc3nc4c(c5ccccc35)CCCO4)CN2C(=O)[C@@H](NC(=O)OC(C)(C)C)[C@H](C)C1 [Compound 6042, tert-butyl ((2R,6S,7R,9R,13aS,14aR,16aS,Z)-2-((2,3-dihydro-1H-pyrano[2,3-c]isoquinolin-6-yl)oxy)-14a-(((1-(fluoromethyl)cyclopropyl)sulfonyl)carbamoyl)-7,9-dimethyl-5,16-dioxo-1,2,3,5,6,7,8,9,10,11,13a,14,14a,15,16,16a-hexadecahydrocyclopropa[e]pyrrolo[1,2-a][1,4]diazacyclopentadecin-6-yl)carbamate]	0.51 to 1	1.01 to 5	
C[C@@H]1CC/C=C\[C@@H]2C[C@@]2(C(=O)NS(=O)(=O)C2CC2)NC(=O)[C@@H]2C[C@@H](Oc3nccc4c5c(ccc34)N(C)CCO5)CN2C(=O)[C@@H](NC(=O)NC(C)(C)C)[C@H](C)C1 [Compound 5284, (2R,6S,7R,9R,13aS,14aR,16aS,Z)-6-(3-(tert-butyl)ureido)-N-(cyclopropylsulfonyl)-7,9-dimethyl-2-((4-methyl-3,4-dihydro-2H-[1,4]oxazino[2,3-f]isoquinolin-7-yl)oxy)-5,16-dioxo-1,2,3,5,6,7,8,9,10,11,13a,14,14a,15,16,16a-hexadecahydrocyclopropa[e]pyrrolo[1,2-a][1,4]diazacyclopentadecine-14a-carboxamide]	< 5.46	< 5.46	
COc1cnc(O[C@@H]2C[C@H]3C(=O)N[C@]4(C(=O)NS(=O)(=O)C5(CF)CC5)C[C@H]4/C=C\CC[C@@H](C)C[C@@H](C)[C@H](NC(=O)OC(C)(C)C(F)(F)F)C(=O)N3C2)c2ccccc12 [Compound 4155]			EC50 [1, 7]: < 5.46 nM; EC50 [2, 8]: < 5.46 nM
CC[C@@H]1C[C@H](C)CC/C=C\[C@@H]2C[C@@]2(C(=O)NS(=O)(=O)C2(C)CC2)NC(=O)[C@@H]2C[C@@H](Oc3nc(OC)cc4cc(OC)c(F)cc34)CN2C(=O)[C@H]1NC(=O)OC1(C(F)(F)F)CCCOC1 (stereo partly drawn) [Compound 1189]			EC50 [1, 7]: 0.51 to 1 nM; EC50 [2, 8]: 1.01 to 5 nM
CC(C)Oc1ccc2c(O[C@@H]3C[C@H]4C(=O)N[C@]5(C(=O)NS(=O)(=O)C6(C)CC6)C[C@H]5/C=C\CC[C@@H](C)C[C@@H](C)[C@H](NC(=O)OC(C)(C)C)C(=O)N4C3)nccc2c1 [Compound 5157, tert-butyl ((2R,6S,7R,9R,13aS,14aR,16aS,Z)-2-((6-isopropoxyisoquinolin-1-yl)oxy)-7,9-dimethyl-14a-(((1-methylcyclopropyl)sulfonyl)carbamoyl)-5,16-dioxo-1,2,3,5,6,7,8,9,10,11,13a,14,14a,15,16,16a-hexadecahydrocyclopropa[e]pyrrolo[1,2-a][1,4]diazacyclopentadecin-6-yl)carbamate]	< 5.46	< 5.46	
COc1cnc2ccc(O[C@@H]3C[C@H]4C(=O)N[C@]5(C(=O)NS(=O)(=O)C6(C)CC6)C[C@H]5/C=C\CC[C@@H](C)C[C@@H](C)[C@H](NC(=O)OC(C)(C)C(F)(F)F)C(=O)N4C3)cc2n1 [Compound 4339]			EC50 [1, 7]: 0.1 to 0.5 nM; EC50 [2, 8]: 0.1 to 0.5 nM
COc1ccc2c(O[C@@H]3C[C@H]4C(=O)N[C@]5(C(=O)NS(=O)(=O)C6CC6)C[C@H]5/C=C\CC[C@H](C)C[C@@H](C)[C@H](NC(=O)OC(C)(C)C)C(=O)N4C3)nc(N3CCOCC3)cc2c1 [Compound 3106, tert-butyl ((2R,6S,7R,9S,13aS,14aR,16aS,Z)-14a-((cyclopropylsulfonyl)carbamoyl)-2-((6-methoxy-3-morpholinoisoquinolin-1-yl)oxy)-7,9-dimethyl-5,16-dioxo-1,2,3,5,6,7,8,9,10,11,13a,14,14a,15,16,16a-hexadecahydrocyclopropa[e]pyrrolo[1,2-a][1,4]diazacyclopentadecin-6-yl)carbamate]			EC50 [1, 5]: 4.82 to 103 nM; EC50 [2, 6]: 4.82 to 103 nM
COc1ccc(-c2nc(O[C@@H]3C[C@H]4C(=O)N[C@]5(C(=O)NS(=O)(=O)C6CC6)C[C@H]5/C=C\CC[C@H](C)C[C@@H](C)[C@H](NC(=O)OC(C)(C)C)C(=O)N4C3)c3ccc(OC)cc3n2)cc1 [Compound 5001, tert-butyl ((2R,6S,7R,9S,13aS,14aR,16aS,Z)-14a-((cyclopropylsulfonyl)carbamoyl)-2-((7-methoxy-2-(4-methoxyphenyl)quinazolin-4-yl)oxy)-7,9-dimethyl-5,16-dioxo-1,2,3,5,6,7,8,9,10,11,13a,14,14a,15,16,16a-hexadecahydrocyclopropa[e]pyrrolo[1,2-a][1,4]diazacyclopentadecin-6-yl)carbamate]	< 5.46	< 5.46	
CCOc1cc2ccnc(O[C@@H]3C[C@H]4C(=O)N[C@]5(C(=O)NS(=O)(=O)C6(CF)CC6)C[C@H]5/C=C\CC[C@@H](C)C[C@@H](C)[C@H](NC(=O)OC(C)(C)C)C(=O)N4C3)c2cc1F [Compound 5411, tert-butyl ((2R,6S,7R,9R,13aS,14aR,16aS,Z)-2-((6-ethoxy-7-fluoroisoquinolin-1-yl)oxy)-14a-(((1-(fluoromethyl)cyclopropyl)sulfonyl)carbamoyl)-7,9-dimethyl-5,16-dioxo-1,2,3,5,6,7,8,9,10,11,13a,14,14a,15,16,16a-hexadecahydrocyclopropa[e]pyrrolo[1,2-a][1,4]diazacyclopentadecin-6-yl)carbamate]	0.51 to 1	1.01 to 5	
